{"source": "ChEMBL document CHEMBL1201862", "about": "“PubChem BioAssay data set” (2004)", "assay_in_all_cases": "NCI-60 cell line screen, 48 h", "key": {"KM-20L2": {"system": "KM-20L2"}, "CAKI-1": {"system": "CAKI-1"}, "XF498": {"system": "XF498"}, "SF-539": {"system": "SF-539"}, "U-251": {"system": "U-251"}, "UO-31": {"system": "UO-31"}, "OVCAR-8": {"system": "OVCAR-8"}, "EKVX": {"system": "EKVX"}, "SN12C": {"system": "SN12C"}, "CCRF-CEM": {"system": "CCRF-CEM"}, "NCI-H522": {"system": "NCI-H522"}, "COLO 205": {"system": "COLO 205"}, "NCI-H460": {"system": "NCI-H460"}, "M14": {"system": "M14"}, "SW-620": {"system": "SW-620"}, "DMS-114": {"system": "DMS-114"}, "TK-10": {"system": "TK-10"}, "SK-OV-3": {"system": "SK-OV-3"}, "NCI-H23": {"system": "NCI-H23"}, "SK-MEL-5": {"system": "SK-MEL-5"}, "HT-29": {"system": "HT-29"}, "HOP-92": {"system": "HOP-92"}, "ACHN": {"system": "ACHN"}, "SK-MEL-28": {"system": "SK-MEL-28"}, "DLD-1": {"system": "DLD-1"}, "HCT-15": {"system": "HCT-15"}, "RPMI-8226": {"system": "RPMI-8226"}, "HCT-116": {"system": "HCT-116"}, "M19-MEL": {"system": "M19-MEL"}, "SF-295": {"system": "SF-295"}, "A549": {"system": "A549"}, "A498": {"system": "A498"}, "LXFL 529": {"system": "LXFL 529"}, "HL-60": {"system": "HL-60"}, "RXF 393": {"system": "RXF 393"}, "SNB-19": {"system": "SNB-19"}, "UACC-62": {"system": "UACC-62"}, "IGROV-1": {"system": "IGROV-1"}, "LOX IMVI": {"system": "LOX IMVI"}, "HOP-18": {"system": "HOP-18"}, "MOLT-4": {"system": "MOLT-4"}, "SF-268": {"system": "SF-268"}, "K562": {"system": "K562"}, "DMS-273": {"system": "DMS-273"}, "Malme-3M": {"system": "Malme-3M"}, "OVCAR-4": {"system": "OVCAR-4"}, "SR": {"system": "SR"}, "KM12": {"system": "KM12"}, "HOP-62": {"system": "HOP-62"}, "OVCAR-3": {"system": "OVCAR-3"}, "HCC 2998": {"system": "HCC 2998"}, "NCI-H226": {"system": "NCI-H226"}, "OVCAR-5": {"system": "OVCAR-5"}}, "note": "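Dose response: 5 concentrations. Exposure: 48 h. Format: 96-well plates. Endpoint: linear interpolation; highest concentration if not reached. GI50 = concentration required for 50% inhibition of growth.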 The source made the active and inactive calls. No stated cut-off is given here; in the data, active = GI50 up to about 1.1 µM and inactive = higher.", "data": [{"smiles": "O=[PH](O)c1cccs1", "values": [{"measurement": "GI50", "setting": "KM-20L2", "value": "> 100 µM (inactive)"}, {"measurement": "GI50", "setting": "CAKI-1", "value": "> 100 µM (inactive)"}, {"measurement": "GI50", "setting": "XF498", "value": "> 100 µM (inactive)"}, {"measurement": "GI50", "setting": "SF-539", "value": "> 100 µM (inactive)"}, {"measurement": "GI50", "setting": "U-251", "value": "> 100 µM (inactive)"}, {"measurement": "GI50", "setting": "UO-31", "value": "> 100 µM (inactive)"}, {"measurement": "GI50", "setting": "OVCAR-8", "value": "> 100 µM (inactive)"}, {"measurement": "GI50", "setting": "EKVX", "value": "> 100 µM (inactive)"}, {"measurement": "GI50", "setting": "SN12C", "value": "> 100 µM (inactive)"}, {"measurement": "GI50", "setting": "CCRF-CEM", "value": "> 100 µM (inactive)"}, {"measurement": "GI50", "setting": "NCI-H522", "value": "> 100 µM (inactive)"}, {"measurement": "GI50", "setting": "COLO 205", "value": "> 100 µM (inactive)"}, {"measurement": "GI50", "setting": "NCI-H460", "value": "> 100 µM (inactive)"}, {"measurement": "GI50", "setting": "M14", "value": "> 100 µM (inactive)"}, {"measurement": "GI50", "setting": "SW-620", "value": "> 100 µM (inactive)"}, {"measurement": "GI50", "setting": "DMS-114", "value": "> 100 µM (inactive)"}, {"measurement": "GI50", "setting": "TK-10", "value": "> 100 µM (inactive)"}, {"measurement": "GI50", "setting": "SK-OV-3", "value": "> 100 µM (inactive)"}, {"measurement": "GI50", "setting": "NCI-H23", "value": "> 100 µM (inactive)"}, {"measurement": "GI50", "setting": "SK-MEL-5", "value": "> 100 µM (inactive)"}, {"measurement": "GI50", "setting": "HT-29", "value": "> 100 µM (inactive)"}, {"measurement": "GI50", "setting": "HOP-92", "value": "57 µM (inactive)"}, {"measurement": "GI50", "setting": "ACHN", "value": "> 100 µM (inactive)"}, {"measurement": "GI50", "setting": "SK-MEL-28", "value": "> 100 µM (inactive)"}, {"measurement": "GI50", "setting": "DLD-1", "value": "> 100 µM (inactive)"}, {"measurement": "GI50", "setting": "HCT-15", "value": "> 100", "unit": "µM"}, {"measurement": "GI50", "setting": "RPMI-8226", "value": "> 100 µM (inactive)"}, {"measurement": "GI50", "setting": "HCT-116", "value": "> 100 µM (inactive)"}, {"measurement": "GI50", "setting": "M19-MEL", "value": "> 100 µM (inactive)"}, {"measurement": "GI50", "setting": "SF-295", "value": "> 100 µM (inactive)"}, {"measurement": "GI50", "setting": "A549", "value": "> 100 µM (inactive)"}, {"measurement": "GI50", "setting": "A498", "value": "> 100 µM (inactive)"}, {"measurement": "GI50", "setting": "LXFL 529", "value": "> 100 µM (inactive)"}, {"measurement": "GI50", "setting": "HL-60", "value": "> 100 µM (inactive)"}, {"measurement": "GI50", "setting": "RXF 393", "value": "> 100 µM (inactive)"}, {"measurement": "GI50", "setting": "SNB-19", "value": "> 100 µM (inactive)"}, {"measurement": "GI50", "setting": "UACC-62", "value": "> 100 µM (inactive)"}, {"measurement": "GI50", "setting": "IGROV-1", "value": "> 100 µM (inactive)"}, {"measurement": "GI50", "setting": "LOX IMVI", "value": "> 100 µM (inactive)"}, {"measurement": "GI50", "setting": "HOP-18", "value": "> 100 µM (inactive)"}, {"measurement": "GI50", "setting": "MOLT-4", "value": "> 100 µM (inactive)"}, {"measurement": "GI50", "setting": "SF-268", "value": "> 100 µM (inactive)"}, {"measurement": "GI50", "setting": "K562", "value": "> 100 µM (inactive)"}, {"measurement": "GI50", "setting": "DMS-273", "value": "> 100 µM (inactive)"}]}, {"smiles": "Cc1ccc2c(=O)c3ccccc3sc2c1", "values": [{"measurement": "GI50", "setting": "KM-20L2", "value": "> 100 µM (inactive)"}, {"measurement": "GI50", "setting": "CAKI-1", "value": "45.4 µM (inactive)"}, {"measurement": "GI50", "setting": "Malme-3M", "value": "> 100 µM (inactive)"}, {"measurement": "GI50", "setting": "SF-539", "value": "> 100 µM (inactive)"}, {"measurement": "GI50", "setting": "U-251", "value": "> 100 µM (inactive)"}, {"measurement": "GI50", "setting": "UO-31", "value": "> 100 µM (inactive)"}, {"measurement": "GI50", "setting": "OVCAR-8", "value": "> 100 µM (inactive)"}, {"measurement": "GI50", "setting": "EKVX", "value": "55.2 µM (inactive)"}, {"measurement": "GI50", "setting": "SN12C", "value": "> 100 µM (inactive)"}, {"measurement": "GI50", "setting": "CCRF-CEM", "value": "> 100 µM (inactive)"}, {"measurement": "GI50", "setting": "NCI-H522", "value": "> 100 µM (inactive)"}, {"measurement": "GI50", "setting": "OVCAR-4", "value": "> 100 µM (inactive)"}, {"measurement": "GI50", "setting": "COLO 205", "value": "> 100 µM (inactive)"}, {"measurement": "GI50", "setting": "SR", "value": "79.4 µM (inactive)"}, {"measurement": "GI50", "setting": "NCI-H460", "value": "> 100 µM (inactive)"}, {"measurement": "GI50", "setting": "M14", "value": "> 100 µM (inactive)"}, {"measurement": "GI50", "setting": "SW-620", "value": "> 100 µM (inactive)"}, {"measurement": "GI50", "setting": "TK-10", "value": "> 100 µM (inactive)"}, {"measurement": "GI50", "setting": "SK-OV-3", "value": "> 100 µM (inactive)"}, {"measurement": "GI50", "setting": "KM12", "value": "53.7 µM (inactive)"}, {"measurement": "GI50", "setting": "NCI-H23", "value": "> 100 µM (inactive)"}, {"measurement": "GI50", "setting": "HOP-62", "value": "> 100 µM (inactive)"}, {"measurement": "GI50", "setting": "SK-MEL-5", "value": "> 100 µM (inactive)"}, {"measurement": "GI50", "setting": "OVCAR-3", "value": "> 100 µM (inactive)"}, {"measurement": "GI50", "setting": "HT-29", "value": "77.3 µM (inactive)"}, {"measurement": "GI50", "setting": "ACHN", "value": "> 100 µM (inactive)"}, {"measurement": "GI50", "setting": "SK-MEL-28", "value": "> 100 µM (inactive)"}, {"measurement": "GI50", "setting": "DLD-1", "value": "> 100 µM (inactive)"}, {"measurement": "GI50", "setting": "RPMI-8226", "value": "> 100 µM (inactive)"}, {"measurement": "GI50", "setting": "HCT-116", "value": "> 100 µM (inactive)"}, {"measurement": "GI50", "setting": "M19-MEL", "value": "> 100 µM (inactive)"}, {"measurement": "GI50", "setting": "HCC 2998", "value": "> 100 µM (inactive)"}, {"measurement": "GI50", "setting": "A549", "value": "> 100 µM (inactive)"}, {"measurement": "GI50", "setting": "LXFL 529", "value": "> 100 µM (inactive)"}, {"measurement": "GI50", "setting": "HL-60", "value": "26.9 µM (inactive)"}, {"measurement": "GI50", "setting": "RXF 393", "value": "> 100 µM (inactive)"}, {"measurement": "GI50", "setting": "SNB-19", "value": "66.4 µM (inactive)"}, {"measurement": "GI50", "setting": "UACC-62", "value": "> 100 µM (inactive)"}, {"measurement": "GI50", "setting": "IGROV-1", "value": "> 100 µM (inactive)"}, {"measurement": "GI50", "setting": "LOX IMVI", "value": "> 100 µM (inactive)"}, {"measurement": "GI50", "setting": "HOP-18", "value": "6.19 µM (inactive)"}, {"measurement": "GI50", "setting": "MOLT-4", "value": "72.8 µM (inactive)"}, {"measurement": "GI50", "setting": "SF-268", "value": "> 100 µM (inactive)"}, {"measurement": "GI50", "setting": "NCI-H226", "value": "> 100 µM (inactive)"}, {"measurement": "GI50", "setting": "K562", "value": "> 100 µM (inactive)"}, {"measurement": "GI50", "setting": "OVCAR-5", "value": "> 100 µM (inactive)"}, {"measurement": "GI50", "setting": "DMS-273", "value": "> 100 µM (inactive)"}]}]}
